Earlier results on four compounds are cited in US20240350389A1, “METHOD FOR DYEING KERATINOUS MATERIAL, IN PARTICULAR HUMAN HAIR” (HENKEL AG & CO. KGAA, priority 2021, published 2024).

For this data set the following is noted: 25° C.

`O=[N+]([O-])c1cc([N+](=O)[O-])c2ccc(S(=O)(=O)O)cc2c1O.[Na].[Na]` [Acid yellow 1, 8-hydroxy-5,7-dinitro-2-naphthalenesulfonic acid disodium]: the solubility in water result was “at least 40 g/L”.
With `Nc1cc(S(=O)(=O)[O-])cc2cc(S(=O)(=O)[O-])c(N=Nc3ccccc3)c(O)c12.[Na+].[Na+]` [Acid Red 33, disodium salt of 5-amino4-hydroxy-3-(phenylazo)-naphthalene2,7-disulfonate], the solubility in water is 2500 µg/mL.
Turning to `O=S(=O)([O-])c1ccc(N=Nc2c(O)ccc3ccccc23)cc1.[Na+]` [Acid Orange 7, sodium salt of 4-[(2-hydroxy-1-naphthyl)azo]benzene sulfonate], the solubility in water result is on record as “more than 7 g/L”.
On to `CCN(Cc1cccc(S(=O)(=O)[O-])c1)c1ccc(C(=C2C=CC(=[N+](CC)Cc3cccc(S(=O)(=O)[O-])c3)C=C2)c2ccccc2S(=O)(=O)[O-])cc1.[Na+].[Na+]` [Acid Blue 9], for which the water solubility result was “more than 20 wt %”.
